# Reference: patent US20080207708A1, “Oxazole and Thiazole Compounds and Their Use in the Treatment of Pge2 Mediated Disorders” (GLAXO GROUP LIMITED, priority 2005, published 2008)
# Counter-ions that a name gives are not always drawn.
# Target: T1, EP1 receptors (Homo sapiens, UniProt P34995)
# T1 sequence (P34995 1-402): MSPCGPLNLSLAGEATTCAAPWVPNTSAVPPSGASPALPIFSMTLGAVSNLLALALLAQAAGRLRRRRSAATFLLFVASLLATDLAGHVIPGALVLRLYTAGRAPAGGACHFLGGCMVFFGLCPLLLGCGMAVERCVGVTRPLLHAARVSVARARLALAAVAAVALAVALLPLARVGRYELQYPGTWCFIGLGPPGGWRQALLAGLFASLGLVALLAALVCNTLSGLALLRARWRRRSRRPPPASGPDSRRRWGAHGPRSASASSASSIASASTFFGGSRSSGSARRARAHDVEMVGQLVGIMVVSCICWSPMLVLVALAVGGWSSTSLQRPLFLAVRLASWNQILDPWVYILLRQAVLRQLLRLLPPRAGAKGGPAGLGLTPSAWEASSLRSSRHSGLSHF
# Experiment: Binding assay for the human prostanoid EP1 receptor (competition with [3H]-PGE2)
# Design: expressed in transfected cells; host or cells: CHO-K1 cells, membrane fraction
# Conditions: [3H]-PGE2 competition; averages of a number of experiments; read-out: pIC50 value, binding assay for the human prostanoid EP1 receptor (converted)
# Experimental: Competition assay using [^3H]-PGE2.
# Compound potencies are determined using a radioligand binding assay. In this assay compound potencies are determined from their ability to compete with tritiated prostaglandin E2 ([^3H]-PGE2) for binding to the human EP1 receptor.
# This assay utilises Chinese hamster ovary-K1 (CHO-K1) cells into which a stable vector containing the EP1 cDNA has previously been transfected. Cells are cultured in suitable flasks containing culture medium such as DMEM:F-12 supplemented with 10% v/v foetal calf serum, 2 mM L-glutamine, 0.25 mg/ml geneticin, 10 μg/ml puromycin and 10 μM indomethacin.
# Cells are detached from the culture flasks by incubation in calcium and magnesium free phosphate buffered saline containing 1 mM disodium ethylenediaminetetraacetic acid (Na2EDTA) and 10 μM indomethacin for 5 min. The cells are isolated by centrifugation at 250×g for 5mins and suspended in an ice cold buffer such as 50 mM Tris, 1 mM Na2EDTA, 140 mM NaCl, 10 μM indomethacin (pH 7.4). The cells are homogenised using a Polytron tissue disrupter (2×10 s burst at full setting), centrifuged at 48,000×g for 20mins and the pellet containing the membrane fraction is washed (optional) three times by suspension and centrifugation at 48,000×g for 20mins. The final membrane pellet is suspended in an assay buffer such as 10 mM 2-[N-morpholino]ethanesulphonic acid, 1 mM Na2EDTA, 10 mM MgCl2 (pH 6). Aliquots are frozen at […] until required.
# For the binding assay the cell membranes, competing compounds and [^3H]-PGE2 (3 nM final assay concentration) are incubated in a final volume of 100 μl for 30 min at 30° C. All reagents are prepared in assay buffer. Reactions are terminated by rapid vacuum filtration over GF/B filters using a Brandell cell harvester. The filters are washed with ice cold assay buffer, dried and the radioactivity retained on the filters is measured by liquid scintillation counting in Packard TopCount scintillation counter.
# The data are analysed using non linear curve fitting techniques to determine the concentration of compound producing 50% inhibition of specific binding (IC50).
row,IC50,Compound
1,≤ 1000 nM,"NC(=O)c1nc(Cc2cc(Cl)ccc2OCc2ccc(Cl)cc2)cs1 [Example 5, 4-[(5-chloro-2-{[(4-chlorophenyl)methyl]oxy}phenyl)methyl]-1,3-thiazole-2-carboxamide]"
2,≤ 31.6 nM,"O=C(O)c1nc(Cc2cc(Cl)ccc2OCc2ccccc2Cl)cs1 [Example 83, Sodium 4-[(5-chloro-2-{[(2-chlorophenyl)methyl]oxy}phenyl)methyl]-1,3-thiazole-2-carboxylate]"
3,≤ 31.6 nM,"O=C(O)c1csc(Cc2cc(Br)ccc2OCc2ccc(Cl)cc2)n1 [Example 56, Sodium 2-[(5-bromo-2-{[(4-chlorophenyl)methyl]oxy}phenyl)methyl]-1,3-thiazole-4-carboxylate]"
4,≤ 1000 nM,"NC(=O)c1nc(Cc2cc(Cl)ccc2OCc2ccc(F)cc2Cl)cs1 [Example 6, 4-[(5-chloro-2-{[(2-chloro-4-fluorophenyl)methyl]oxy}phenyl)methyl]-1,3-thiazole-2-carboxamide]"
5,≤ 31.6 nM,"O=C(O)c1csc(Cc2cc(Cl)ccc2OCc2ccc(Cl)cc2)n1 [Example 11, 2-[(5-chloro-2-{[(4-chlorophenyl)methyl]oxy}phenyl)methyl]-1,3-thiazole-4-carboxylicacid]"

# Second part, the molecule before the results:
row,Compound,IC50
1,"O=C(O)Cc1csc(-c2cc(Cl)ccc2OCc2ccc(F)cc2Cl)n1 [Example 66, Sodium [2-(5-chloro-2-{[(2-chloro-4-fluorophenyl)methyl]oxy}phenyl)-1,3-thiazol-4-yl]acetate]",≤ 1000 nM
2,"O=C(O)Cc1csc(-c2cc(Cl)ccc2OCc2ccc(F)cc2F)n1 [Example 63, Sodium [2-(5-chloro-2-{[(2,4-difluorophenyl)methyl]oxy}phenyl)-1,3-thiazol-4-yl]acetate]",≤ 1000 nM
3,"O=C(O)c1csc(Cc2cc(Cl)ccc2OCc2ccccc2)n1 [Example 9, 2-({5-chloro-2-[(phenylmethyl)oxy]phenyl}methyl)-1,3-thiazole-4-carboxylicacid]",≤ 31.6 nM
4,"O=C(O)Cc1csc(-c2cc(Cl)ccc2OCc2ccccc2Cl)n1 [Example 70, Sodium [2-(5-chloro-2-{[(2-chlorophenyl)methyl]oxy}phenyl)-1,3-thiazol-4-yl]acetate]",≤ 1000 nM
5,"O=C1CN(Cc2ccc(NC(=O)c3csc(Cc4cc(Cl)ccc4OCc4ccccc4)n3)cc2)CCN1 [Example 122, 2-({5-Chloro-2-[(phenylmethyl)oxy]phenyl}-methyl)-N-{4-[(3-oxo-1-piperazinyl)methyl]phenyl}-1,3-thiazole-4-carboxamidehydrochloride]",≤ 31.6 nM
6,"O=C(O)c1nc(Cc2cc(Cl)ccc2OCc2c(F)ccc(F)c2F)cs1 [Example 88, Sodium 4-[(5-chloro-2-{[(2,3,6-trifluorophenyl)methyl]-oxy}phenyl)methyl]-1,3-thiazole-2-carboxylate]",≤ 1000 nM
7,"O=C(NS(=O)(=O)c1ccccc1)c1csc(Cc2cc(Cl)ccc2OCc2ccccc2)n1 [Example 100, 2-({5-Chloro-2-[(phenylmethyl)oxy]phenyl}methyl)-N-(phenylsulfonyl)-1,3-thiazole-4-carboxamide]",≤ 31.6 nM
8,"O=C(O)c1csc(Cc2cc(Cl)ccc2OCc2ccc(F)cc2F)n1 [Example 16, 2-[(5-chloro-2-{[(2,4-difluorophenyl)methyl]oxy}phenyl)methyl]-1,3-thiazole-4-carboxylicacid]",≤ 31.6 nM
9,"O=C(O)c1csc(Cc2cc(C(F)(F)F)ccc2OCC2CCC2)n1 [Example 43, Sodium 2-{[2-[(cyclobutylmethyl)oxy]-5-(trifluoromethyl)phenyl]methyl}-1,3-thiazole-4-carboxylate]",≤ 31.6 nM
10,"O=C(O)c1nc(Cc2cc(Cl)ccc2OCc2c(F)cc(F)cc2F)cs1 [Example 85, Sodium 4-[(5-chloro-2-{[(2,4,6-trifluorophenyl)methyl]-oxy}phenyl)methyl]-1,3-thiazole-2-carboxylate]",≤ 31.6 nM
11,"O=C(O)c1csc(Cc2cc(Cl)ccc2OCc2ccccc2F)n1 [Example 10, 2-[(5-chloro-2-{[(2-fluorophenyl)methyl]oxy}phenyl)methyl]-1,3-thiazole-4-carboxylicacid]",≤ 31.6 nM
